In PubChem BioAssay (NCI):
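Tested at 5 concentrations; 48 h exposure; 96-well plates; endpoints linearly interpolated, else capped at highest concentration. GI50 = concentration required for 50% inhibition of growth. TGI denotes the concentration required for complete inhibition of growth.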

Legend:
Experiment in all cases: NCI-60 cell line screen, 48 h
[1] = test system: NCI-H460 lung
[2] = test system: UACC-62 melanoma
[3] = test system: SW-620 colon
[4] = test system: HCT-116 colon
[5] = test system: OVCAR-5 ovarian
[6] = test system: HCC-2998 colon
[7] = test system: NCI-H23 lung
[8] = test system: MDA-MB-435
[9] = test system: CAKI-1 renal
[10] = test system: ACHN renal

SMILES | GI50 [1] [µM] | TGI [1] [µM] | GI50 [2] [µM] | GI50 [3] [µM] | TGI [3] [µM] | GI50 [4] [µM] | TGI [4] [µM] | GI50 [5] [µM] | TGI [5] [µM] | GI50 [6] [µM] | TGI [6] [µM] | GI50 [7] [µM] | TGI [7] [µM] | GI50 [8] [µM] | TGI [8] [µM] | GI50 [9] [µM] | TGI [9] [µM] | GI50 [10] [µM] | TGI [10] [µM] | TGI [2] [µM]
CC(=O)c1cc2c(cc1Nc1c3ccccc3nc3occ(Cl)c13)OCO2 | 0.27 | > 40.1 | 0.271 | 0.0344 | > 100 | 0.246 | 1.07 | 0.616 | > 100 | 0.187 | 0.37 | 0.238 | 2.23 | 0.0444 | 0.161 | 0.085 | > 100 | 0.46 | > 100 | 
Cc1noc(C)c1-c1cc(O)cc(C(O)c2ccccc2)c1 (stereo not drawn) | 25.1 | > 100 |  | 24.6 | > 100 | 7.08 | > 100 | 31.8 | > 100 | 8.55 | > 100 |  |  | 3.48 | > 100 | 4.35 | > 100 | 4.76 | > 100 | 
O=C(CN1CCN(c2ccc(Cl)cc2)CC1)N1CCN(c2nnc(-c3ccc(Cl)cc3)c(-c3ccc(Cl)cc3)n2)CC1 | > 100 | > 100 |  | > 100 | > 100 | 7.84 | > 100 | > 100 | > 100 | > 100 | > 100 | 48 | > 100 | 50.9 | > 100 | 52.6 | > 100 | 31.5 | > 100 | 
OCC1OC(OCC(O)C(O)C(O)C(/C=N/Nc2ccccc2)=N/Nc2ccccc2)C(O)C(O)C1O (stereo not drawn) |  | > 100 |  |  | > 100 |  | > 100 |  | > 100 |  | > 100 |  | > 100 |  | > 100 |  | > 100 |  | > 100 | 
O=c1cc(N2CCNCC2)oc2c(-c3ccccc3)cccc12 | 48.7 | > 100 | 25.2 | 82.9 | > 100 |  |  | > 100 | > 100 | 18.1 | 39.8 | > 100 | > 100 | 20.9 | 98.8 | 26.8 | > 100 | 34.1 | > 100 | > 100
Cn1c(O)c(C(/C=C/c2ccccc2)=NCCN=C(/C=C/c2ccccc2)c2c(O)n(C)c(=O)n(C)c2=O)c(=O)n(C)c1=O | 10.1 | 24.6 | 19.2 | 15.5 | 34.2 | 13.6 | > 50 | 16.8 | > 50 |  |  | 15 | > 50 | 18 | > 50 | 19.9 | > 50 | 21.2 | > 50 | > 50
O=c1c2ccccc2n2n1CC(O)C2 (stereo not drawn) |  | > 100 |  |  | > 100 |  | > 100 |  | > 100 |  | > 100 |  | > 100 | > 100 | > 100 |  | > 100 |  | > 24.6 | 
